melting point: 193.5 °C
SMILES: O=C(c1ccc(-c2ccncc2)nc1)N1CCN(S(=O)(=O)c2ccc3cc(Br)ccc3c2)CC1 (hydrate or solvate) [Example 1, 1-(6-bromonaphth-2-ylsulphonyl)-4-[6-(4-pyridyl)-nicotinoyl]piperazine]

From US6458793B1, “Heterocyclic derivatives which inhibit factor Xa” (Zeneca Limited, priority 1997, dated 2002)
